Test results reported in ChEMBL document CHEMBL3885861, “Open TG-GATES”.

Species: Rattus norvegicus
Test: Open TG-GATES - Regimen: Daily Repeat
Format: toxicity, organism-based, Sprague-Dawley
Parameters: regimen Daily Repeat, gender Male, age 6 weeks
Conditions: in vivo, po, 100 mg/kg, […], route gavage, dose level Low; for KIDNEY_L / KIDNEY_R / KIDNEY_TOTAL: tissue Kidney; for LIVER: tissue Liver; for A/G / ALP / ALT / AST / BUN / CRE / Ca / Cl / DBIL / GLC / IP / K / LDH / Na / PL / RALB / TBIL / TC / TG / TP / gamma-GTP: tissue Plasma

Q: `C[C@H]1O[C@H](O[C@H]2[C@H](O)[C@@H](O)[C@@H](O[C@H]3[C@H](O)[C@@H](O)C(O)O[C@@H]3CO)O[C@@H]2CO)[C@H](O)[C@@H](O)[C@@H]1N[C@H]1C=C(CO)[C@@H](O)[C@H](O)[C@H]1O` (stereo partly specified) [ACARBOSE] was tested. Which Lym (tissue Blood, time 28 day) did it give?
A: The Lym was 78.8%.

Q: And the MCH (tissue Blood, time 28 day)?
A: The MCH was 19.6 pg.

Q: And the MCHC (tissue Blood, time 28 day)?
A: Its MCHC is 34.7%.

Q: What about the MCV (tissue Blood, time 28 day) of the same compound?
A: Its MCV is 56.4 fL.

Q: And the Mono (tissue Blood, time 28 day)?
A: Its Mono is 1.4%.

Q: What about the Neu (tissue Blood, time 28 day) of the same compound?
A: Its Neu is 17.4%.

Q: And the PT (tissue Blood, time 28 day)?
A: Its PT is 13.3 s.

Q: And the Plat (tissue Blood, time 28 day)?
A: The Plat was 103.6 x10_4/uL.

Q: And the RBC (tissue Blood, time 28 day)?
A: The RBC was 780.8 x10_4/ul.

Q: What about the Ret (tissue Blood, time 28 day) of the same compound?
A: Its Ret is 2.4%.

Q: What about the WBC (tissue Blood, time 28 day) of the same compound?
A: Its WBC is 101.5 x10_2/uL.

Q: And the KIDNEY_L (time 7 day)?
A: The KIDNEY_L was 1.1 g.

Q: And the KIDNEY_R (time 7 day)?
A: Its KIDNEY_R is 1.1 g.

Q: And the KIDNEY_TOTAL (time 7 day)?
A: Its KIDNEY_TOTAL is 2.2 g.

Q: And the KIDNEY_L (time 14 day)?
A: Its KIDNEY_L is 1.3 g.

Q: What about the KIDNEY_R (time 14 day) of the same compound?
A: Its KIDNEY_R is 1.3 g.

Q: And the KIDNEY_TOTAL (time 14 day)?
A: Its KIDNEY_TOTAL is 2.6 g.

Q: And the KIDNEY_L (time 28 day)?
A: Its KIDNEY_L is 1.5 g.

Q: What about the KIDNEY_R (time 28 day) of the same compound?
A: Its KIDNEY_R is 1.4 g.

Q: And the KIDNEY_TOTAL (time 28 day)?
A: Its KIDNEY_TOTAL is 2.9 g.

Q: What about the LIVER (time 7 day) of the same compound?
A: The LIVER was 12.2 g.

Q: And the LIVER (time 14 day)?
A: Its LIVER is 15.3 g.

Q: What about the LIVER (time 28 day) of the same compound?
A: Its LIVER is 16.8 g.

Q: And the A/G (time 7 day)?
A: The A/G was 0.9.

Q: What about the ALP (time 7 day) of the same compound?
A: Its ALP is 1544.4 IU/L.

Q: And the ALT (time 7 day)?
A: The ALT was 44 IU/L.

Q: What about the AST (time 7 day) of the same compound?
A: The AST was 73.2 IU/L.

Q: And the BUN (time 7 day)?
A: The BUN was 15.8 mg/dL.

Q: And the CRE (time 7 day)?
A: The CRE was 0.2 mg/dL.

Q: What about the Ca (time 7 day) of the same compound?
A: The Ca was 10.9 mg/dL.

Q: And the Cl (time 7 day)?
A: The Cl was 104.2 meq/L.

Q: What about the DBIL (time 7 day) of the same compound?
A: The DBIL was 0.008 mg/dL.

Q: What about the GLC (time 7 day) of the same compound?
A: The GLC was 176.4 mg/dL.

Q: What about the IP (time 7 day) of the same compound?
A: The IP was 7.4 mg/dL.

Q: What about the K (time 7 day) of the same compound?
A: The K was 3.8 meq/L.

Q: What about the LDH (time 7 day) of the same compound?
A: Its LDH is 76.8 IU/L.

Q: What about the Na (time 7 day) of the same compound?
A: The Na was 141.8 meq/L.

Q: And the PL (time 7 day)?
A: Its PL is 148.4 mg/dL.

Q: What about the RALB (time 7 day) of the same compound?
A: The RALB was 2.6 g/dL.

Q: What about the TBIL (time 7 day) of the same compound?
A: Its TBIL is 0.052 mg/dL.

Q: And the TC (time 7 day)?
A: The TC was 74.6 mg/dL.

Q: And the TG (time 7 day)?
A: Its TG is 103.6 mg/dL.

Q: And the TP (time 7 day)?
A: Its TP is 5.7 g/dL.

Q: And the gamma-GTP (time 7 day)?
A: Its gamma-GTP is 0.8 IU/L.

Q: What about the A/G (time 14 day) of the same compound?
A: Its A/G is 0.8.

Q: What about the ALP (time 14 day) of the same compound?
A: Its ALP is 1438.4 IU/L.

Q: And the ALT (time 14 day)?
A: Its ALT is 36.2 IU/L.

Q: What about the AST (time 14 day) of the same compound?
A: The AST was 62.8 IU/L.

Q: And the BUN (time 14 day)?
A: Its BUN is 16 mg/dL.

Q: What about the CRE (time 14 day) of the same compound?
A: Its CRE is 0.2 mg/dL.

Q: What about the Ca (time 14 day) of the same compound?
A: The Ca was 10.9 mg/dL.

Q: What about the Cl (time 14 day) of the same compound?
A: The Cl was 104.2 meq/L.

Q: And the DBIL (time 14 day)?
A: The DBIL was 0.01 mg/dL.

Q: And the GLC (time 14 day)?
A: The GLC was 182 mg/dL.

Q: And the IP (time 14 day)?
A: Its IP is 6.7 mg/dL.

Q: And the K (time 14 day)?
A: Its K is 4.2 meq/L.

Q: What about the LDH (time 14 day) of the same compound?
A: The LDH was 119.4 IU/L.

Q: And the Na (time 14 day)?
A: The Na was 141.8 meq/L.

Q: What about the PL (time 14 day) of the same compound?
A: The PL was 153.4 mg/dL.

Q: And the RALB (time 14 day)?
A: The RALB was 2.7 g/dL.

Q: What about the TBIL (time 14 day) of the same compound?
A: Its TBIL is 0.052 mg/dL.

Q: What about the TC (time 14 day) of the same compound?
A: Its TC is 75.4 mg/dL.

Q: And the TG (time 14 day)?
A: Its TG is 146.8 mg/dL.

Q: And the TP (time 14 day)?
A: Its TP is 6 g/dL.

Q: What about the gamma-GTP (time 14 day) of the same compound?
A: The gamma-GTP was 1 IU/L.

Q: What about the A/G (time 28 day) of the same compound?
A: Its A/G is 0.8.

Q: And the ALP (time 28 day)?
A: The ALP was 1221 IU/L.

Q: And the ALT (time 28 day)?
A: The ALT was 36.8 IU/L.

Q: What about the AST (time 28 day) of the same compound?
A: Its AST is 66.2 IU/L.

Q: And the BUN (time 28 day)?
A: Its BUN is 17 mg/dL.

Q: What about the CRE (time 28 day) of the same compound?
A: The CRE was 0.2 mg/dL.

Q: What about the Ca (time 28 day) of the same compound?
A: The Ca was 10.8 mg/dL.

Q: What about the Cl (time 28 day) of the same compound?
A: The Cl was 104.8 meq/L.

Q: And the DBIL (time 28 day)?
A: The DBIL was 0.018 mg/dL.

Q: And the GLC (time 28 day)?
A: The GLC was 179.8 mg/dL.

Q: And the IP (time 28 day)?
A: Its IP is 6.4 mg/dL.

Q: What about the K (time 28 day) of the same compound?
A: Its K is 4.1 meq/L.

Q: And the LDH (time 28 day)?
A: The LDH was 79.6 IU/L.

Q: And the Na (time 28 day)?
A: The Na was 142.4 meq/L.

Q: And the PL (time 28 day)?
A: The PL was 149.2 mg/dL.

Q: What about the RALB (time 28 day) of the same compound?
A: The RALB was 2.8 g/dL.

Q: What about the TBIL (time 28 day) of the same compound?
A: Its TBIL is 0.056 mg/dL.

Q: What about the TC (time 28 day) of the same compound?
A: Its TC is 70 mg/dL.

Q: And the TG (time 28 day)?
A: The TG was 156 mg/dL.

Q: What about the TP (time 28 day) of the same compound?
A: Its TP is 6.2 g/dL.

Q: What about the gamma-GTP (time 28 day) of the same compound?
A: Its gamma-GTP is 1 IU/L.
